According to patent US12492204B2, “Substituted (7H-pyrrolo[2,3-D]pyrimidin-4-yl) amino compounds useful as JAK 1 inhibitors” (CHEMWERTH, INC., priority 2019, dated 2025):

Experiments:
JAK1 = JAK1 (Homo sapiens (Human), UniProt P23458); test: JAK1 enzymatic assay; assay type: biochemical; settings: for IC50: ATP 66 μM, Peptide D; for selectivity for JAK1 over JAK2 / selectivity for JAK1 over JAK3: from enzymatic IC50 values; for selectivity for JAK1 over JAK2: JAK1 vs JAK2; for selectivity for JAK1 over JAK3: JAK1 vs JAK3
Chain of JAK1 (P23458 whole entry): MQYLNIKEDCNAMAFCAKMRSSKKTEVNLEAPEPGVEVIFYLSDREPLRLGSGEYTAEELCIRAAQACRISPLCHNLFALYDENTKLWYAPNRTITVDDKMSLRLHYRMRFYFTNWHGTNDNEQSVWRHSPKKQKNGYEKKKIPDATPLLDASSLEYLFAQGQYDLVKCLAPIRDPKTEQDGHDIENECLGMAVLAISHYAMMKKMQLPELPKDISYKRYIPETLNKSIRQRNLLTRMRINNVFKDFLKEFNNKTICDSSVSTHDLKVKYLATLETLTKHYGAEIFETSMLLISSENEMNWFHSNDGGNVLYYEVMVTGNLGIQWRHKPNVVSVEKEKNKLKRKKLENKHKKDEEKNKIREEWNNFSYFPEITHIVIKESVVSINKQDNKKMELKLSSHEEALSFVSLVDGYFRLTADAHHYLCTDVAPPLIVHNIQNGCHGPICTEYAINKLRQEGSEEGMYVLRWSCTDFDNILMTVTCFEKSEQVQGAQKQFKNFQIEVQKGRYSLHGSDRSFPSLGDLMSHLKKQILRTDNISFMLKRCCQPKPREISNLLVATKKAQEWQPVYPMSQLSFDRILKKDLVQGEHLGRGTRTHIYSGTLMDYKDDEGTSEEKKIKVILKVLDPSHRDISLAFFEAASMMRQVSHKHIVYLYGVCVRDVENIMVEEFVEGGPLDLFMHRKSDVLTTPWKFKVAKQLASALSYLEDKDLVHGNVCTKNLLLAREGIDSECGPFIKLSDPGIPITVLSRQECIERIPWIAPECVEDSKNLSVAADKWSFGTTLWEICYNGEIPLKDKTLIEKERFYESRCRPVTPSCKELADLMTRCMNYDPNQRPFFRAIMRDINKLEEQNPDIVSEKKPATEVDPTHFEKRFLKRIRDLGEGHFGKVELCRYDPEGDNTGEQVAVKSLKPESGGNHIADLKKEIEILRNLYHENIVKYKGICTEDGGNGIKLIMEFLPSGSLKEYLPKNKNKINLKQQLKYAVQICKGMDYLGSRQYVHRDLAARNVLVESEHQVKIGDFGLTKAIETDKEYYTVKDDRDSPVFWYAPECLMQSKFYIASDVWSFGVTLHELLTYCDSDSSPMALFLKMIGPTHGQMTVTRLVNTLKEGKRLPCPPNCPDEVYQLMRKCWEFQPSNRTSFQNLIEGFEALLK
Method: (§1) A. JAK1, JAK2, and JAK3 Enzymatic Assays
(§2) The JAK enzymatic assay used the following reagents.
(§3) Preparation of assay plate. Each sample or reference compound was diluted to 50× the desired highest inhibitor concentration with DMSO. Each sample or reference compound was serially diluted using a 96-well source plate so that there were 10 concentrations for testing. 10 μL from each well of the source plate was transferred to a 96-well intermediate plate. […] 5 μL from each well of the 96-well intermediate plate was transferred to a 384-well plate.
(§4) Kinase reaction. […] The term “max” refers to the DMSO control and “min” stands for low control. Curve-fitting of the data was performed using Xlfit excel add-in version 5.4.0.8 to obtain IC50 values. Equation used was Y=Bottom+(Top−Bottom)/(1+(Log IC50/X)^HillSlope. The peptide substrates used for each kinase, peptide concentration, enzyme concentration, and ATP concentrations are presented in TABLE 2.

JAK2 = JAK2 (Homo sapiens (Human), UniProt O60674); test: JAK2 enzymatic assay; assay type: biochemical; settings: ATP 6.5 μM, Peptide22
Chain of JAK2 (O60674 whole entry): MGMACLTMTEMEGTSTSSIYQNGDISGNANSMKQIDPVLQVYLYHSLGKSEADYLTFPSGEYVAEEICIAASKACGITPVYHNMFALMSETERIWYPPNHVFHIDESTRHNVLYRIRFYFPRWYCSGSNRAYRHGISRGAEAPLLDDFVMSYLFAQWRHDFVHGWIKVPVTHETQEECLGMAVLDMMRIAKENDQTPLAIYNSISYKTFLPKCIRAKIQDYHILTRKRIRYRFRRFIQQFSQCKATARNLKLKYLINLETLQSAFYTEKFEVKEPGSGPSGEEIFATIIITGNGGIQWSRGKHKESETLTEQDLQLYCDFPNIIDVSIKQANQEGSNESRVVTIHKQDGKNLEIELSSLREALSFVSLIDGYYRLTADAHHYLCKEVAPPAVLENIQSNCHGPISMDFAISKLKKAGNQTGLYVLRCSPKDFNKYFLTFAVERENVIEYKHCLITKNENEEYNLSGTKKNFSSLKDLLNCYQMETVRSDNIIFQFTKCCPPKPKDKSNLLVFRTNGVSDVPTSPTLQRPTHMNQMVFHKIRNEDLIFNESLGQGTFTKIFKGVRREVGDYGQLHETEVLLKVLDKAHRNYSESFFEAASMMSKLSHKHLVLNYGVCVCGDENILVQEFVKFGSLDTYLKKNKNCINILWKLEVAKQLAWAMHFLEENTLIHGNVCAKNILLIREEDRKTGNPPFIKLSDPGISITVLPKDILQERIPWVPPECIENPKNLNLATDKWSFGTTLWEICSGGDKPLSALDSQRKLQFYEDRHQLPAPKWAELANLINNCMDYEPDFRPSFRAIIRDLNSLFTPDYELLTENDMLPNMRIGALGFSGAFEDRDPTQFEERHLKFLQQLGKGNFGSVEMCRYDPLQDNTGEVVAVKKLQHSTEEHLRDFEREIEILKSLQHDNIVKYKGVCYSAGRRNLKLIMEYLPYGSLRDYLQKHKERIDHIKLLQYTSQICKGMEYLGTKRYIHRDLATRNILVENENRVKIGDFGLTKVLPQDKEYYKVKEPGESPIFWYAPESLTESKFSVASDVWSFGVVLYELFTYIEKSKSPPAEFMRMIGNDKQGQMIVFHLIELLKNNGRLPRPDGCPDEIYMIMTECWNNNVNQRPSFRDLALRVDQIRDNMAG
Method: as §1, §2
JAK2 (Carna Bio, USA, Inc. Natick, MA, Cat.No. 08-045)
as §3, §4

JAK3 = JAK3 (Homo sapiens (Human), UniProt P52333); test: JAK3 enzymatic assay; assay type: biochemical; settings: ATP 6.2 μM, Peptide22
Chain of JAK3 (P52333 whole entry): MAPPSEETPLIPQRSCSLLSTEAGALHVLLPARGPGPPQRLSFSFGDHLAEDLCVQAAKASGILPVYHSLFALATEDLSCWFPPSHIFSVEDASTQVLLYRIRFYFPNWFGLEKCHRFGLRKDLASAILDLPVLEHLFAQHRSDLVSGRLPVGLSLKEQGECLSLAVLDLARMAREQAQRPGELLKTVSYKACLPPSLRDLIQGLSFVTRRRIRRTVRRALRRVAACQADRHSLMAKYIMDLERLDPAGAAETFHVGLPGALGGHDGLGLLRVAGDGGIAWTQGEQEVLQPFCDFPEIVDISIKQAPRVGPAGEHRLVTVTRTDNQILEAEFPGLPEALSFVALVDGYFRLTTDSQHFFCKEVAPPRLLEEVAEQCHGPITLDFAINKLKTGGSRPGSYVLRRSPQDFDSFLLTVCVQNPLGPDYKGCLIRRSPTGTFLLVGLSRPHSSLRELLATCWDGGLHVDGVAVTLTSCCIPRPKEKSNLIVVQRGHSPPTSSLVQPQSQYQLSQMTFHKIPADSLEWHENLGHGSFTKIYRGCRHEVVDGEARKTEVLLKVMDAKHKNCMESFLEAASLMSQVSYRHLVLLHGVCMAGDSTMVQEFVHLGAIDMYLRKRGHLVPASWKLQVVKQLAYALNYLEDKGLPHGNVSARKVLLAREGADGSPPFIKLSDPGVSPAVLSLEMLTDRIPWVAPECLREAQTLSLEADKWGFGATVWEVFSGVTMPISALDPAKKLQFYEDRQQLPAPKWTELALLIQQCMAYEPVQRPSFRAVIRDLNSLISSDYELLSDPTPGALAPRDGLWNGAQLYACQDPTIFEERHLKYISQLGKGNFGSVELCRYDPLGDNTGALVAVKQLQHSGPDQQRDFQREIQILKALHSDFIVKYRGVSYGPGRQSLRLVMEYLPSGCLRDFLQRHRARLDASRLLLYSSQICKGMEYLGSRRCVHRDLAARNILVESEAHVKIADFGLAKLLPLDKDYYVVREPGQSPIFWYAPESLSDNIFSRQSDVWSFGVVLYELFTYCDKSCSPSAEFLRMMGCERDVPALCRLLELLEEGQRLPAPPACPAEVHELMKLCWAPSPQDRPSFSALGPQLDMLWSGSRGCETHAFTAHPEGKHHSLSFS
Method: as §1, §2
JAK3 (Carna Bio, USA, Inc. Natick, MA, Cat.No. 08-046)
as §3, §4

TYK2 = TYK2 (Homo sapiens (Human), UniProt P29597); test: TYK2 enzymatic assay; assay type: biochemical; settings: ATP 16 μM, Peptide30
Chain of TYK2 (P29597 whole entry): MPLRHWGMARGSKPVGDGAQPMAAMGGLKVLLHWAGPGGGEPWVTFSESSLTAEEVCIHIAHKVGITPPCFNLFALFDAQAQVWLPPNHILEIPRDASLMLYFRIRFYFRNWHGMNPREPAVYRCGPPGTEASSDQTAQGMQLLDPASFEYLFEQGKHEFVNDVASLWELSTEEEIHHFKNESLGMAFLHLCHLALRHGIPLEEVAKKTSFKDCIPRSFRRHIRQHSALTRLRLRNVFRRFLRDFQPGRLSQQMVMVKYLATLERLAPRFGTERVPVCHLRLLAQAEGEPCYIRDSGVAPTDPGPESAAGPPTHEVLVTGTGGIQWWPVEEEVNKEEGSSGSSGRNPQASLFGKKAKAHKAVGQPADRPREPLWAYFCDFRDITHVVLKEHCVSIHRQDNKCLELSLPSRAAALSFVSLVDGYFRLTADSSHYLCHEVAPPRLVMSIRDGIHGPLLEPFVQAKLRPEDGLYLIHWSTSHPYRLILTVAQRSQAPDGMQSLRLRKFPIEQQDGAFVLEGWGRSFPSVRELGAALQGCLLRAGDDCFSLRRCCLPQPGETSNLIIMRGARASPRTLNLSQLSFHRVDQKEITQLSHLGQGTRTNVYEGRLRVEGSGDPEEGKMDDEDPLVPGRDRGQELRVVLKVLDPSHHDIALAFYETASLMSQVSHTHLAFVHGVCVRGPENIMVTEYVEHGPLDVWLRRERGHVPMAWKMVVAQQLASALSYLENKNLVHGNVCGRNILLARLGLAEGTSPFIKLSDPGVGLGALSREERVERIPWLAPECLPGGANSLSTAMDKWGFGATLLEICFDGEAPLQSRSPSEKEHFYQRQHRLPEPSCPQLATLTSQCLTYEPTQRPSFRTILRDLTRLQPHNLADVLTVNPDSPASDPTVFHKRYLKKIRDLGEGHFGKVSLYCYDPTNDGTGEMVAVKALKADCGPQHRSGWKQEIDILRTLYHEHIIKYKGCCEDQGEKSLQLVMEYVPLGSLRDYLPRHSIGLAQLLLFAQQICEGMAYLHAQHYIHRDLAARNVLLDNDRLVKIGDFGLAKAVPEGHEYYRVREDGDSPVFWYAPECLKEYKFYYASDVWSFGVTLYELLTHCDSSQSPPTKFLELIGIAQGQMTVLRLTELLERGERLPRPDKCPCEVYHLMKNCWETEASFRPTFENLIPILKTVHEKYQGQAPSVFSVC

[1] = Metabolic stability assay (liver microsomes); assay type: in vitro ADME; settings: dog liver microsomes; for Percent Remaining (%) 0 min / Percent Remaining (%) 5 min / Percent Remaining (%) 15 min / Percent Remaining (%) 30 min / Percent Remaining (%) 45 min: mean; for half-lives as compared with the reference compounds: vs Oclacitinib and ketanserin; for CLint scaled at 1 µM / half-life at 1 µM: pooled liver microsomes, pH 7.4
Method: Stock solutions of the sample and reference compounds were prepared in DMSO (10 mM). A spiking solution (500 μM) was prepared for each sample compound and reference compound by diluting 10 μL of the stock solution in ACN (190 μL). A microsomal spiking solution having a microsome concentration of 0.75 mg/mL was prepared for each sample: 1.5 μL of the respective 500 μM spiking solution was mixed with 18.75 μL microsomal solution (pooled liver microsomes, 20 mg/mL in 250 mM sucrose, Corning, Cat. No. 452601, Lot. No. 8176003) and 479.75 μL buffer (0.1 M potassium phosphate buffer, 1.0 mM EDTA, pH 7.4). The microsomal spiking solutions were cooled on ice. Assay plates with wells designated for different time points (0, 5, 15, 30 and 45 minutes) were cooled on ice. 30 μL of each microsomal spiking solution was added to the wells designated for different time points (0, 5, 15, 30 and 45 minutes). 135 μL of ACN containing IS was added to the wells of the plate labelled 0 minutes followed by 15 μL of the NaDPH stock solution (6 mM NaDPH in 0.1 M Potassium Phosphate buffer, 1.0 mM EDTA, pH 7.4). The plates for 5, 15, 30 and 45 minutes were incubated at 37° C. for 5 minutes. At 5 min, […], 30 min, and 45 min, 135 μL of ACN containing IS was added to the wells of the corresponding plates to quench the reaction. The plates were shaken [IKA vibrator, MTS 2/4] for 10 minutes and centrifuged at 5594 G for 15 minutes (Thermo Multifuge×3R). 50 μL of the supernatant from each well was transferred to a 96-well sample plate containing 50 μL of ultrapure water (Millipore, ZMQS50F01) for LC-MS analysis.

| Structure (SMILES) | IC50 (JAK1) [nM] | selectivity for JAK1 over JAK2 (JAK1) | selectivity for JAK1 over JAK3 (JAK1) [fold] | IC50 (JAK2) [nM] | IC50 (JAK3) [nM] | IC50 (TYK2) [nM] | Percent Remaining (%) 0 min [1] [%] | Percent Remaining (%) 5 min [1] [%] | Percent Remaining (%) 15 min [1] [%] | Percent Remaining (%) 30 min [1] [%] | Percent Remaining (%) 45 min [1] [%] | half-lives as compared with the reference compounds [1] | CLint scaled at 1 µM [1] [mL/min/kg] | half-life at 1 µM [1] [h] |
| --- | --- | --- | --- | --- | --- | --- | --- | --- | --- | --- | --- | --- | --- | --- |
| CNS(=O)(=O)C[C@H]1CC[C@H](N(C)c2ncnc3[nH]ccc23)CC1 [Oclacitinib, reference compound] | 6.6 | 45% | 10.6 | 9.3 | 70 | 77 | 100.00 | 94.12 | 82.56 | 68.65 | 62.97 | – | 53 | 1.09 |
| CN(c1ncnc2[nH]ccc12)[C@H]1CC[C@H](NC(=O)NCC(F)(F)F)CC1 [Compound 6, 1-((1r,4r)-4-(methyl(7H-pyrrolo[2,3-d]pyrimidin-4-yl)amino)cyclohexyl)-3-(2,2,2-trifluoroethyl)urea] | 2.3 | 6 fold | 18.3 | 14 | 42 | 335 | 100.00 | 93.91 | 85.39 | 76.25 | 71.95 | dramatically improved half-lives | 36.5 | 1.58 |
| O=C(c1ccc(F)cc1)C1CCN(CCn2c(=O)[nH]c3ccccc3c2=O)CC1 [ketanserin, reference compound] | – | – | – | – | – | – | 100.00 | 82.91 | 62.01 | 42.37 | 36.16 | – | 114 | 0.505 |

More lines, now with the values ahead:

| IC50 (JAK1) [nM] | selectivity for JAK1 over JAK2 (JAK1) | selectivity for JAK1 over JAK3 (JAK1) [fold] | IC50 (JAK2) [nM] | IC50 (JAK3) [nM] | IC50 (TYK2) [nM] | Percent Remaining (%) 0 min [1] [%] | Percent Remaining (%) 5 min [1] [%] | Percent Remaining (%) 15 min [1] [%] | Percent Remaining (%) 30 min [1] [%] | Percent Remaining (%) 45 min [1] [%] | half-lives as compared with the reference compounds [1] | CLint scaled at 1 µM [1] [mL/min/kg] | half-life at 1 µM [1] [h] | Structure (SMILES) |
| --- | --- | --- | --- | --- | --- | --- | --- | --- | --- | --- | --- | --- | --- | --- |
| 7.5 | 2.4 fold | 3.5 | 18 | 26 | 415 | 100.00 | 100.66 | 95.39 | 87.57 | 86.91 | dramatically improved half-lives | 18.2 | 3.16 | CN(c1ncnc2[nH]ccc12)[C@H]1CC[C@H](NC(=O)NCC#N)CC1 [Compound 5, 1-(cyanomethyl)-3-((1r,4r)-4-(methyl(7H-pyrrolo[2,3-d]pyrimidin-4-yl)amino)cyclohexyl)urea] |
| 156 | 87% | 3.96 | 292 | 618 | 3820 | – | – | – | – | – | – | – | – | CNC(=O)N[C@H]1CC[C@H](N(C)c2ncnc3[nH]ccc23)CC1 [Compound 1, 1-methyl-3-((1r,4r)-4-(methyl(7H-pyrrolo[2,3-d]pyrimidin-4-yl)amino)cyclohexyl)urea] |
| 40 | 3.35 fold | 15.4 | 134 | 615 | 2710 | – | – | – | – | – | – | – | – | CC(C)NC(=O)N[C@H]1CC[C@H](N(C)c2ncnc3[nH]ccc23)CC1 [Compound 4, 1-isopropyl-3-((1r,4r)-4-(methyl(7H-pyrrolo[2,3-d]pyrimidin-4-yl)amino)cyclohexyl)urea] |
| 19 | 3.7 fold | 10.9 | 70 | 207 | 1510 | 100.00 | 94.76 | 86.94 | 75.53 | 73.67 | dramatically improved half-lives | 35.4 | 1.63 | CCCNC(=O)N[C@H]1CC[C@@H](N(C)c2ncnc3[nH]ccc23)CC1 [Compound 3, 1-propyl-3-((1r,4r)-4-(methyl(7H-pyrrolo[2,3-d]pyrimidin-4-yl)amino)cyclohexyl)urea] |
| 43 | 2.9 fold | 10.4 | 126 | 447 | 1790 | – | – | – | – | – | – | – | – | CCNC(=O)N[C@H]1CC[C@H](N(C)c2ncnc3[nH]ccc23)CC1 [Compound 2, 1-ethyl-3-((1r,4r)-4-(methyl(7H-pyrrolo[2,3-d]pyrimidin-4-yl)amino)cyclohexyl)urea] |
